Results reported in BigSolDB 2.1.

NC(N)=S
solubility (mole fraction)
Details	303.15 K	308.15 K	313.15 K	318.15 K	323.15 K	328.15 K	333.15 K	338.15 K	343.15 K
in acetonitrile	0.00752	0.00805	0.00864	0.00915	0.00972	0.0101	0.0108	0.011	0.0112
in benzene	0.00283	0.00313	0.0034	0.00372	0.00395	0.00436	0.00496	0.00564	0.0065
in chlorobenzene	0.00127	0.00144	0.00157	0.00174	0.00189	0.00211	0.0023	0.00256	0.00277
in ethanol	0.0283	0.0322	0.0354	0.0401	0.0465	0.0531	0.0592	0.0662	0.0751
in ethyl acetate	0.0199	0.021	0.0221	0.023	0.0244	0.0264	0.0286	0.0307	0.0327
in isopropanol	0.0258	0.0286	0.0325	0.0361	0.0408	0.0445	0.049	0.0534	0.0588
in m-xylene	0.0022	0.00249	0.00277	0.00311	0.00342	0.00375	0.00422	0.00485	0.00556
in methanol	0.0605	0.0654	0.0728	0.0804	0.0932	0.106	0.123	–	–
in n-butanol	0.0207	0.0225	0.0248	0.0273	0.0297	0.0332	0.0361	0.0396	–
in n-octanol	0.0211	0.0242	0.028	0.032	0.0354	0.0394	0.0445	0.0488	0.0526
in n-propanol	0.0242	0.0265	0.0292	0.0324	0.036	0.0398	0.0451	0.0499	0.0544
in toluene	0.0025	0.00289	0.00307	0.00336	0.00372	0.00405	0.00452	0.00525	0.0059
